This is an account of results in patent US7291451B2, “Modulation of pericyte proliferation” (XOMA Technology Ltd., priority 2000, dated 2007).

“Also recorded” adds a separate entry of the source.

Assay [1] has as its system bovine retinal pericytes (BRPC). In words: Cell growth assay (DNA content, cell number) in bovine retinal pericytes. The assay is classed as cell-based. The settings on record: for stimulation of proliferation: 5, 10 or 15% FBS. As to the method: A cell growth assay was performed as follows: Cells were plated onto 12-well culture plates and incubated overnight. The cells were treated with vehicle, vascular endothelial growth factor (VEGF, R & D Systems, Minneapolis, Minn.) at 25 ng/ml, serum, compounds, or combinations thereof. The medium is changed during the incubation period, with fresh medium and fresh test compound added every 2 days. After incubation for indicated time period at 37° C., the cells were lysed in 0.1% SDS and DNA content was measured by means of Hoechst-33258 dye and a fluorometer (model TKO-100, Hoefer Scientific Instruments, San Francisco, Calif.). It has been shown that total cellular DNA content measured in this manner correlates closely with actual cell number as determined by hemocytometer counting of trypsinized cells.
Determinations were performed in triplicate and all experiments were repeated at least three times. Results are expressed as the mean ±standard deviation, unless otherwise indicated. Statistical analysis employed Student's t-test or analysis of variance to compare quantitative data populations with normal distributions and equal variance. Data were analyzed using the Mann-Whitney rank sum test or the Kruskal-Wallis test for populations with non-normal distributions or unequal variance. A P-value of <0.05 was considered statistically significant.
Primary cultures of bovine retinal pericytes (BRPC) were isolated by homogenization and a series of filtration steps as described in King et al., J. Clin. Invest., 1985, 75:1028-36. BRPC were cultured in Dulbecco's modified Eagle's medium (DMEM, Gibco BRL, Grand Island, N.Y.) with 5.5 mM glucose and 20% fetal bovine serum (FBS, Gibco BRL, Grand Island, N.Y.). Cells were characterized for homogeneity by their immunoreactivity with monoclonal antibody 3G5 [Nayak et al., J. Exp. Med. 1988, 167:1003-15]. Cells remained morphologically unchanged under these conditions, as confirmed by light microscopy. Only cells from passages 2 through 7 were used for the experiments.
A cell growth assay was performed as described above in Example 1 and the medium was changed, with fresh medium and fresh test compound added every 2 or 3 days, preferably every 2 days. […] At 20% FBS a six to seven fold increase of total DNA was detected.

Assay [2] has as its system retinal neovascularization. In words: Oxygen-pulse induced retinal neovascularization in newborn rats. The settings on record: for retinal neovascular score (sum of quadrant scores): P18, vehicle 6.41. The assay is classed as in vivo. As for the experimental part:
In contrast to the assay for anti-angiogenesis effect of BPI protein products in neonatal mice described in part A above, experiments were conducted in newborn rats Crj:CD(SD)IGS (Charles River, Japan). Unlike the method described in part A above of producing ischemia-induced retinal neovascularization by exposing neonatal mice to a constant level of oxygen at 75±2% for 5 days, newborn rats were exposed to oxygen pulses as described below.
The newborn rats within a few hours after birth were put into the oxygen chamber (780 mm×520 mm×520 mm). The oxygen level in the experimental chamber was controlled with a computer program (Oxycycler, Reming Bioinstruments, N.Y., US). The oxygen level was maintained at 80% for 20.5 hours, then rapidly dropped to 21% for 30 minutes before a gradual return to 80% during the following 3 hours. The program was run for 11 cycles (24 hour per cycle). At the end of 11th cycle (postnatal day 11 (P11)), mothers and newborn rats were transferred to room air condition and kept for 7 days. For a seven day period step newborn rats were injected intraperitoneally with XMP.679 at doses of 2, 6 and 20 mg/kg. On P18, the rats were sacrificed, and the left eyes were enucleated. The eyes were fixed in 4% paraformaldehyde (PFA) for 1 hour. Using scissors, the cornea and sclera were removed from the eyecup. The lens was removed with tweezers, and the vitreous was thoroughly removed with tweezers and scissors. The semi-spherical retina was fixed in 4% PFA and stained, using the method of adenosine diphosphatase (ADPase) histochemistry. Abnormal neovascularization was assessed on P18 by histochemically staining retina for ADPase activity. This procedure preferentially stains retinal vascular endothelium and microglia in rats of this age. The retina was incubated in ADPase incubation medium at 37° C. for 1 hour with gentle agitation. It was then washed thoroughly in cold saline, and treated in a 1:10 dilution of ammonium sulfide for 1 minute. The retina was then washed in […] to remove sulfide. The retina was placed in a small drop of liquid on a saline-coated slide. […] The retina was put in a layer of Perma Fluor® covered with a cover glass. Glomerular buds (tiny popcorn) upon the surface of the regina, fan shaped neovascular fronds, and ridges (vascular complexes that cause a distinct elongate elevation of the retinal surface, and which usually contain several vessels running parallel to the ciliary body) were identified.
Criteria for scoring neovascular intensity were as follows: 0: Nothing; 1: <5 buds; 2: >5 buds, or a frond; 3: Ridge<half of quadrant; or 4: Ridge>half of quadrant. The retinal neovascular scores were equal to the sum of quadrant scores. […]

Take “XMP.679: BPI-derived peptide derived from BPI domain II, SEQ ID NO: 3 (KLFKAQAKAKG; XMP.679; listed as Homo sapiens)”: the stimulation of proliferation in assay [1] (5 μg/mL) is roughly 2 fold; in assay [1] (15 μg/mL), “no enhancement”. Also, in assay [1] (5 μg/ml, 5% FBS), the “growth increase as potency of 20% FBS” value was 30 to 40%. For the same substance, the “growth compared with 20% FBS” value in assay [1] (5 μg/ml, 10% FBS) is given as “equaled the effect of 20% FBS”. Also, the retinal pericyte proliferation entry in assay [1] (5 μg/ml, 10% FBS) is given as “greatest increase”; in assay [1] (20 μg/ml, 10% FBS), “did not”. The “growth compared with 15 or 20% FBS (trend)” value in assay [1] (5 μg/ml, 15% FBS) is recorded as “may have more growth effect than either 15 or 20% FBS”. For the same substance, the effect on growth result in assay [1] (15 μg/ml (higher concentration), 5% FBS, 3 or 6 days) was “did not increase growth; also recorded: did not show-a growth stimulating effect”; in assay [1] (15 μg/ml, 10% FBS), “did not have much growth effect”; in assay [1] (1 or 5 μg/ml, 5% FBS, 6 days) it was “increased growth”; in assay [1] (15% FBS, concentration not given), “did not increase the growth of pericyte in 15% FBS to any significant amount”. The “pericyte DNA content” value in assay [1] (1, 5, 10, and 15 μg/ml, 10% FBS) is “Statistically significant increases”. Moreover, the “retinal neovascular score (sum of quadrant scores)” value in assay [2] (2 mg/kg/day intraperitoneal) is on record as 7.29; in assay [2] (6 mg/kg/day intraperitoneal), 4.59; in assay [2] (20 mg/kg/day intraperitoneal), 5.56. Moreover, the “change of retinal neovascularization score versus vehicle” value in assay [2] (6 mg/kg, differences not statistically significant) is given as “reduced”.
